Test results as given in patent US20240425523A1, “Compounds for the Degradation of EGFR Kinase” (Beigene Switzerland GMBH, priority 2023, published 2024).

Columns and labels:
Type in all cases: cell-based
[1] = target: T1, EGFR L858R (BaF3-L858R cells) (Homo sapiens, UniProt P00533, L858R); test: Cell degradation of EGFR, HTRF assay, BaF3-L858R cells; settings: 16 h treatment; for DC50: EGFR degradation
T1 construct: host or cells: BaF3
Procedure: (§1) BaF3-L858R (abbv. L858R) cell were purchased from Kangyuan Bochuang Biotechnology (Beijing) Co., Ltd.
(§2) H1975-#8 and BaF3-L858R cells are treated with compounds diluted in 0.1% DMSO cell culture medium on day 2, incubate for 16 h, 37° C., 5% CO2. the final concentration of compounds in all assay is start with 10 uM, 5-fold dilution, total 8 doses were included.
(§3) After 16 h treatment, for H1975-#8 cells, add 100 ul HTRF 1× lysis buffer to each well; for BaF3-L858R cells, add 20 μl 4× lysis buffer to each well; seal the plate and incubate 1 hour at room temperature on a plate shaker; Once the cells are lysed, 16 μL of cell lysate are transferred to a PE 384-well HTRF detection plate; 4 μL of pre-mixed HTRF antibodies are added to each well; Cover the plate with a plate sealer, spin 1000 rpm for 1 min, Incubate overnight at room temperature; Read on BMG PheraStar with HTRF protocol (337 nm-665 nm-620 nm).
(§4) High control=Cell group with added DMSO and without compound, indicating microplate readings without EGFR degradation;
(§5) Dmax is the maximum percentage of inhibition (degradation).
(§6) The IC50 (DC50) value of a compound can be obtained by fitting the following equation
(§7) Y=Bottom+(TOP−Bottom)/(1+((IC50/X)^hillslope))
(§8) Wherein, X and Y are known values, and IC50, Hillslope, Top and Bottom are the parameters obtained by fitting with software. […] The experimental data were fitted by calculating and analyzing with Dotmatics data analysis software.

[2] = target: T2, EGFR-L858R/C797S (H1975-clone #8 cells) (Homo sapiens, UniProt P00533, C797S/L858R); test: Cell degradation of EGFR, HTRF assay, H1975-clone#8 (L858R/C797S) cells; settings: 16 h treatment; for DC50: EGFR degradation
T2 construct: expressed in transfected cells; host or cells: H1975 (endogenous EGFR knocked out, clone #8)
Procedure: (§9) The EGFR over-expressed cells then underwent knockout, in which the EGFR targeting sgRNA was designed to only target the endogenous EGFR copies and preserve the exogenous EGFR copies. Followed by the knockout, the edited H1975 cells were seeded in 96 well plates at the concentration of 1 cell/cell, cultured for about 2 weeks to allow single clones formation. The formed clones were screened by DNA sequencing and whole exon sequencing analysis for the desired edition.
as §2, §3, §4, §5, §6, §7, §8

[3] = target: p-EGFR Del19/C797S (H1975-clone #23 cells) (Homo sapiens, UniProt P00533); test: Cell p-EGFR inhibition assay, HTRF, H1975-clone#23 (DEL19/C797S) cells; settings: 16 h treatment; for Imax (%): maximum percentage of pEGFR inhibition; for IC50: pEGFR inhibition
Procedure: as §9, with “cell/well,” for “cell/cell,”
(§10) H1975-#23 and BaF3-L858R cells are treated with compounds diluted in 0.1% DMSO cell culture medium on day 2, incubate for 16 h, 37° C., 5% CO2. the final concentration of compounds in all assay is start with 10 uM, 5-fold dilution, total 8 doses were included.
as §3, with “for H1975-#23” for “for H1975-#8”, “add 50” for “add 100”
(§11) High control=Cell group with added DMSO and without compound, indicating microplate readings without p-EGFR inhibited.
(§12) Imax is the maximum percentage of inhibition.
(§13) The IC50 value of a compound can be obtained by fitting the following equation.
as §8

[4] = target: T3, p-EGFR L858R (BaF3-L858R cells) (Homo sapiens, UniProt P00533, L858R); test: Cell p-EGFR inhibition assay, HTRF, BaF3-L858R cells; settings: 16 h treatment; for Imax (%): maximum percentage of pEGFR inhibition; for IC50: pEGFR inhibition
T3 construct: host or cells: BaF3
Procedure: as §1, §10
as §3, with “for H1975-#23” for “for H1975-#8”, “add 50” for “add 100”
as §11, §12, §13, §8

[5] = maximum percentage of degradation

DC50 [1] [nM] | DC50 [2] [nM] | Imax (%) [3] [%] | IC50 [3] [nM] | Imax (%) [4] [%] | IC50 [4] [nM] | Dmax [1, 5] [%] | Dmax [2, 5] [%] | Molecule | Dmax (%) [1, 5] [%] | Dmax (%) [2, 5] [%]
4.01 | 2.1 | 100.5 | 0.5 | 109.3 | 6 | 79.7 | 64.7 | Cc1cc2cc(n1)-c1cnn(C)c1OC[C@H]1CCC(C1)CN1/C(=N/C2=O)Nc2ccc(N3CCN([C@H]4CCN(c5cc(F)c([C@H]6CCC(=O)NC6=O)c(F)c5)C[C@H]4F)CC3)cc21 (single isomer, unassigned) [Example 84] |  | 
1.25 | 0.61 | 99.4 | 0.8 | 98.5 | 7.9 | 85.4 | 83.4 | Cc1cc2cc(n1)-c1cnn(C)c1OC[C@H]1CCC(C1)CN1/C(=N/C2=O)Nc2ccc(N3CCC(N4CCC(Nc5cc(F)c([C@H]6CCC(=O)NC6=O)c(F)c5)CC4)CC3)cc21 (single isomer, unassigned) [Example 116] |  | 
3.82 | 2.92 | 100.56 | 2.37 | 92 | 4.77 | 80 | 80.4 | Cc1cc2cc(n1)-c1c(C)nn(C)c1OC[C@H]1CC[C@H](C1)CN1/C(=N/C2=O)Nc2ccc(N3CCN([C@H]4CCN(c5cc(F)c([C@H]6CCC(=O)NC6=O)c(F)c5)C4)CC3)cc21 (single isomer, unassigned) [Example 186] |  | 
2.18 | 0.63 | 98.77 | 1.69 | 88.33 | 0.871 | 88.3 | 82.5 | Cc1cc2cc(n1)-c1c(C)nn(C)c1OC[C@H]1CC[C@H](C1)CN1/C(=N/C2=O)Nc2ccc(N3CCC(N4CCC(Nc5cc(F)c([C@H]6CCC(=O)NC6=O)c(F)c5)CC4)CC3)cc21 (single isomer, unassigned) [Example 213] |  | 

The next lines start with the molecule.

Molecule | DC50 [1] [nM] | DC50 [2] [nM] | Imax (%) [3] [%] | IC50 [3] [nM] | Imax (%) [4] [%] | IC50 [4] [nM] | Dmax [1, 5] [%] | Dmax [2, 5] [%] | Dmax (%) [1, 5] [%] | Dmax (%) [2, 5] [%]
3-((5-(4-((S)-2-(methoxymethyl)-4-((7^1R,7^3S,E)-1^1,1^3,2^6-trimethyl-3-oxo-5^2,5^3-dihydro-1^1H,5^1H-9-oxa-4-aza-5(2,1)-benzo[d]imidazola-2(2,4)-pyridina-1(4,5)-pyrazola-7(1,3)-cyclopentanacyclononaphane-5^6-yl)piperazin-1-yl)piperidin-1-yl)-4,6-dimethylpyridin-2-yl)oxy)piperidine-2,6-dione [Example 167] | 4.72 | 4.33 | 102.84 | 3.01 | 98.09 | 6.86 |  |  | 83.25 | 88.56
Cc1cc2cc(n1)-c1cnn(C)c1OC[C@H]1CC[C@H](C1)CN1/C(=N/C2=O)Nc2ccc(N3CCN(CC4CN(c5ccc6c(c5)CN(C5CCC(=O)NC5=O)C6=O)C4)CC3)cc21 (some centres unmarked) [Example 35, 3-(5-(3-((4-((7^1R,7^3S,E)-1^1,2^6-dimethyl-3-oxo-5^2,5^3-dihydro-1^1H,5^1H-9-oxa-4-aza-5(2,1)-benzo[d]imidazola-2(2,4)-pyridina-1(4,5)-pyrazola-7(1,3)-cyclopentanacyclononaphane-5^6-yl)piperazin-1-yl)methyl)azetidin-1-yl)-1-oxoisoindolin-2-yl)piperidine-2,6-dione] | 0.49 | 0.6 | 101.1 | 0.5 | 91.6 | 1.3 | 91.8 | 58 |  | 
Cc1cc2cc(n1)-c1cnn(C)c1OC[C@H]1CC[C@H](C1)CN1/C(=N/C2=O)Nc2ccc(N3CCN(C4CCN(c5ccc(OC6CCC(=O)NC6=O)cc5)CC4)CC3)cc21 (some centres unmarked) [Example 57, 3-(4-(4-(4-((7^1R,7^3S,E)-1^1,2^6-dimethyl-3-oxo-5^2,5^3-dihydro-1^1H,5^1H-9-oxa-4-aza-5(2,1)-benzo[d]imidazola-2(2,4)-pyridina-1(4,5)-pyrazola-7(1,3)-cyclopentanacyclononaphane-5^6-yl)piperazin-1-yl)piperidin-1-yl)phenoxy)piperidine-2,6-dione] | 3.84 | 3.14 | 97.9 | 1.2 | 101 | 10.5 | 82.6 | 58.5 |  | 
Cc1cc2cc(n1)-c1cnn(C)c1OC[C@H]1CC[C@H](C1)CN1/C(=N/C2=O)Nc2ccc(N3CCN(C4CCN(c5ccc(NC6CCC(=O)NC6=O)cc5F)CC4)CC3)cc21 (some centres unmarked) [Example 59, 3-((4-(4-(4-((7^1R,7^3S,E)-1^1,2^6-dimethyl-3-oxo-5^2,5^3-dihydro-1^1H,5^1H-9-oxa-4-aza-5(2,1)-benzo[d]imidazola-2(2,4)-pyridina-1(4,5)-pyrazola-7(1,3)-cyclopentanacyclononaphane-5^6-yl)piperazin-1-yl)piperidin-1-yl)-3-fluorophenyl)amino)piperidine-2,6-dione] | 3.18 | 2.87 | 99.6 | 0.7 | 102.5 | 7 | 85.1 | 69 |  | 
COC[C@@H]1CN(c2ccc3c(c2)N2C[C@@H]4CC[C@H](COc5c(cnn5C)-c5cc(cc(C)n5)C(=O)/N=C/2N3)C4)CCN1CC1CN(c2ccc3c(c2)CN(C2CCC(=O)NC2=O)C3=O)C1 (stereo partly drawn) [Example 63, 3-(5-(3-(((S)-4-((7^1R,7^3S,E)-1^1,2^6-dimethyl-3-oxo-5^2,5^3-dihydro-1^1H,5^1H-9-oxa-4-aza-5(2,1)-benzo[d]imidazola-2(2,4)-pyridina-1(4,5)-pyrazola-7(1,3)-cyclopentanacyclononaphane-5^6-yl)-2-(methoxymethyl)piperazin-1-yl)methyl)azetidin-1-yl)-1-oxoisoindolin-2-yl)piperidine-2,6-dione] | 0.55 | 0.61 | 100.6 | 0.2 | 103 | 0.2 | 90 | 60.9 |  | 
COC[C@H]1CN(c2ccc3c(c2)N2C[C@@H]4CC[C@H](COc5c(cnn5C)-c5cc(cc(C)n5)C(=O)/N=C/2N3)C4)CCN1C1CCN(c2cc(F)c([C@H]3CCC(=O)NC3=O)c(F)c2)CC1 [Example 64, (R)-3-(4-(4-((R)-4-((7^1R,7^3S,E)-1^1,2^6-dimethyl-3-oxo-5^2,5^3-dihydro-1^1H,5^1H-9-oxa-4-aza-5(2,1)-benzo[d]imidazola-2(2,4)-pyridina-1(4,5)-pyrazola-7(1,3)-cyclopentanacyclononaphane-5^6-yl)-2-(methoxymethyl)piperazin-1-yl)piperidin-1-yl)-2,6-difluorophenyl)piperidine-2,6-dione] | 1.07 | 1.87 | 101.2 | 0.7 | 101.9 | 3.2 | 83.3 | 70 |  | 
